Test results: US20100028457A1, “AGENT FOR PREVENTION OR TREATMENT OF BLOOD GLUCOSE LEVEL ELEVATION” (UNIVERSITY OF THE RYUKYUS, priority 2006, published 2010)

What was measured:
PPAR-γ mRNA in pancreas = test: Quantification of expression of PPAR-γ mRNA in pancreas (real-time quantitative PCR); type: in vivo; details: KKAy mice after feeding; ratio to GAPDH mRNA; control group 0.28 (100%), normal mice 161%
Method: (§4) According to the conventional method, RNA was extracted from the cells of pancreas and kidney. cDNA was prepared by a reverse transcription reaction from the RNA and quantitative determination of expression amount of mRNA related to diabetes was carried out by means of a real-time quantitative PCR. In the following experiments, quantitative determination of the expression amount of mRNA was analyzed using Mx 3000P (manufactured by Stratagene). In all cases, condition for the PCR was that a hot start was conduced at 95° C. for 10 minutes and then a cycle comprising 95° C. for 30 seconds, 60° C. for 1 minute and 72° C. for 30 seconds was repeated for 45 times. At the same time, dilution rows of five stages were prepared using a control RNA of 5 ng/μl concentration and expression amount of RNA was determined from the resulting standard curve. As to a reagent for the PCR, Brilliant SYBR Green QPCR Master Mix (manufactured by Stratagene) was used in accordance with a protocol for its manual for use. […] Incidentally, expression amount of mRNA of a test substance in each test was indicated in terms of a ng ratio of the commonly expressed GAPDH enzyme to the amount of mRNA (internal standard).
The expression amount of PPAR-γ mRNA was measured by the PCR using the following primer.

plasma insulin = test: Plasma insulin concentration in KKAy mice at end of feeding; type: in vivo; details: 56th day, control group 7.0 ng/ml (100%), normal mice 16%
Method: (§1) Firstly, four kinds of feeds were prepared for animal tests.
(§2) Feeding of the mice of those four groups was conducted in a single feeding manner and water was freely taken by each mouse.
(§3) Blood glucose level during the feeding period (until the 51st day) and blood glucose level, blood insulin concentration, blood leptin concentration and adiponectin concentration were measured when the feeding finished (on the 56th day) whereby the action of each ingredient on the mice was checked. Further, in order to compare with the diabetic model mice, normal mice (eight males) of the same 13 weeks age were used as a normal group and their blood was collected upon finishing the feeding followed by measuring each of the above concentrations.
Concentration of insulin in plasma was measured upon finishing the feeding (on the 56th day).

insulin mRNA in pancreas = test: Quantification of expression of insulin mRNA in pancreas (real-time quantitative PCR); type: in vivo; details: KKAy mice after feeding; ratio to GAPDH mRNA; control group 5.12×10^4 (100%), normal mice 11%
Method: as §4
Expression amount of insulin mRNA in the pancreas was measured by the PCR using the following primers.

PPAR-γ mRNA in kidney = test: Quantification of expression of PPAR-γ mRNA in kidney (real-time quantitative PCR); type: in vivo; details: KKAy mice after feeding; ratio to GAPDH mRNA; control group 0.56 (100%)
Method: as §4
Expression amount of PPAR-γ mRNA in kidney which adjusts adiponectin and its expression promoting the fatty acid combustion in tissues thereof was measured by the PCR using the following primers.

plasma adiponectin = test: Plasma adiponectin concentration in KKAy mice at end of feeding; type: in vivo; details: 56th day, control group 1.1 μg/ml (100%), normal mice 46%
Method: as §1, §2, §3
It has been said that a plasma adiponectin which is an anti-antidiabetic and anti-arteriosclerotic factor derived from fat tissues enhances insulin sensitivity and improves insulin resistant diabetes due to its action of activating the fatty acid oxidation in systemic muscles and reducing the neutral fat amount (Iichiro Shimomura, Toru Funahashi and Yuji Matsuzawa: Adiponectin—Anti-antidiabetic and anti-arteriosclerotic factor derived from fat tissues, Molecular Medicine, Vol. 39, No. 4, 416-423, 2002). […] The concentration of adiponectin was also measured upon finishing the feeding (on the 56th day).

[1] = test system: PPARγ in bone marrow cells of femur; test: Expression of PPARγ mRNA in bone marrow cells of femur (real-time quantitative PCR); type: in vivo; details: KKAy mice after feeding; control group 5.05×10^−2 (100%)
[2] = test system: adiponectin mRNA in pancreas; test: Quantification of expression of adiponectin mRNA in pancreas (real-time quantitative PCR); type: in vivo; details: KKAy mice after feeding; ratio to GAPDH mRNA; control group 1.07 (100%), normal mice 145%
Method: as §4
Expression amount of adiponectin mRNA was measured by the PCR using the following primers.

PPAR-α mRNA in kidney = test: Quantification of expression of PPAR-α mRNA in kidney (real-time quantitative PCR); type: in vivo; details: KKAy mice after feeding; ratio to GAPDH mRNA; control group 0.532 (100%)
Method: as §4
Expression amount of PPAR-α mRNA in kidney was measured by the PCR using the following primers.

PPAR-α mRNA in pancreas = test: Quantification of expression of PPAR-α mRNA in pancreas (real-time quantitative PCR); type: in vivo; details: KKAy mice after feeding; ratio to GAPDH mRNA; control group 0.61 (100%), normal mice 123%
Method: as §4
The expression amount of the PPAR-α mRNA was measured by the PCR using the following primers.

[3] = test system: adiponectin mRNA in kidney; test: Quantification of expression of adiponectin mRNA in kidney (real-time quantitative PCR); type: in vivo; details: KKAy mice after feeding; ratio to GAPDH mRNA; control group 2.53×10^−3 (100%)
Method: as §4
Expression amount of adiponectin mRNA in kidney was measured by the PCR using the following primers.

plasma leptin = test: Plasma leptin concentration in KKAy mice at end of feeding; type: in vivo; details: 56th day, control group 7.3 ng/ml (100%), normal mice 15%
Method: as §1, §2, §3
Concentration of leptin was also measured upon finishing the feeding (on the 56th day).

[4] = test system: spontaneously obese insulin-resistant diabetic mice (KKAy); test: Blood glucose level in KKAy mice fed test feeds; type: in vivo; details: for blood glucose level upon finishing the feeding, % of control group: 56th day, control group 306 mg/dl (100%), normal mice 34%; for blood glucose level, mean value: tail vein blood
Method: as §1, §2, §3
During the feeding period for the two months, blood was collected from tail vein of the mice upon the initiation of the feeding (on the 0th day) and on the 15th, 37th and 51st days from the initiation of the feeding and the blood glucose level therein was measured.

[5] = test system: patients suffering from osteoporosis; details: 32 osteoporosis patients, daily dose 6.4 g (1.7 g as Sr), three months to three years; cited from earlier work
[6] = 15th day of feeding, control group 214
[7] = 37th day of feeding, control group 386
[8] = 51st day of feeding, control group 339
[9] = initiation of feeding (0th day), control group 167

O=[Si]([O-])[O-].[Na+].[Na+] [Si group, sodium metasilicate]
expression amount of PPAR-γ mRNA in pancreas, % of control group (PPAR-γ mRNA in pancreas): 125% | plasma insulin concentration, % of control group (plasma insulin): 68% | expression amount of insulin mRNA in pancreas, % of control group (insulin mRNA in pancreas): 9% | expression amount of PPAR-γ mRNA in kidney, % of control group (PPAR-γ mRNA in kidney): 141% | plasma adiponectin concentration, % of control group (plasma adiponectin): 70% | expression amount of PPARγ in bone marrow cells of femur, % of control group [1]: 50% | expression amount of adiponectin mRNA in pancreas, % of control group [2]: 128% | expression amount of PPAR-α mRNA in kidney, % of control group (PPAR-α mRNA in kidney): 171% | expression amount of PPAR-α mRNA in pancreas, % of control group (PPAR-α mRNA in pancreas): 116% | expression amount of adiponectin mRNA in kidney, % of control group [3]: 135% | plasma leptin concentration, % of control group (plasma leptin): 76% | blood glucose level upon finishing the feeding, % of control group [4]: 86% | blood glucose level, mean value [4, 6]: 231 mg/dL | blood glucose level, mean value [4, 7]: 268 mg/dL | blood glucose level, mean value [4, 8]: 235 mg/dL | blood glucose level, mean value [4, 9]: 156 mg/dL

CC(O)C(=O)[O-].CC(O)C(=O)[O-].[Sr+2] (stereo not drawn) [strontium lactate]
patients in whom improvement was achieved [5]: 84%

[Cl-].[Cl-].[Sr+2] [Sr group, strontium chloride]
expression amount of PPAR-γ mRNA in pancreas, % of control group (PPAR-γ mRNA in pancreas): 181% | plasma insulin concentration, % of control group (plasma insulin): 70% | expression amount of insulin mRNA in pancreas, % of control group (insulin mRNA in pancreas): 64% | expression amount of PPAR-γ mRNA in kidney, % of control group (PPAR-γ mRNA in kidney): 136% | plasma adiponectin concentration, % of control group (plasma adiponectin): 42% | expression amount of PPARγ in bone marrow cells of femur, % of control group [1]: 65% | expression amount of adiponectin mRNA in pancreas, % of control group [2]: 117% | expression amount of PPAR-α mRNA in kidney, % of control group (PPAR-α mRNA in kidney): 169% | expression amount of PPAR-α mRNA in pancreas, % of control group (PPAR-α mRNA in pancreas): 104% | expression amount of adiponectin mRNA in kidney, % of control group [3]: 123% | plasma leptin concentration, % of control group (plasma leptin): 71% | blood glucose level upon finishing the feeding, % of control group [4]: 55% | blood glucose level, mean value [4, 6]: 200 mg/dL | blood glucose level, mean value [4, 7]: 288 mg/dL | blood glucose level, mean value [4, 8]: 247 mg/dL | blood glucose level, mean value [4, 9]: 150 mg/dL
